The text below walks through data of article PMC9370166, “In Vitro and In Vivo Antibacterial Activity, Toxicity and Resistance Analysis of Pleuromutilin Derivative Z33 against Methicillin-Resistant Staphylococcus aureus” (Molecules, 2022).

The structures appear in SMILES notation. Values after ≈ are worked out from the molar mass of the structure shown. Like-named read-outs stand apart in the source and are kept apart here.

The subject of series [1] is MRSA ATCC 43300. The experiment in a line: Post-antibiotic effect assay. In kind it is cell-based, Staphylococcus aureus. Here is the method:
The PAE was measured using the method described by Jin et al.. MRSA ATCC 43300 cells were collected in the logarithmic phase and resuspended in MHB. The bacterial suspension (10^6 CFU/mL) was inoculated in MHB containing Z33 (final concentration is 2 × or 4 × MIC) and incubated for 1 or 2 h at 37 °C with shaking (210 rpm). The group without the drug served as a control. After treatment with various concentrations of Z33, samples were subjected to one-thousand-fold dilution with MHB to remove the drug and incubated at 37 °C. In total, 100 µL of the samples was serially diluted in 0.9% saline and plated onto MHA at various time points (0, 1, 2, 4, 8 h). MHA plates were incubated at 37 °C for 18~24 h to calculate CFU. The growth kinetic curves of MRSA treated with different drug concentrations were established by plotting log10 CFU/mL of bacterial counts versus time. PAE was presented in hours and calculated according to the following equation: PAE = TA − TC, where TA and TC are the time required for MRSA to rise by 1 log10 CFU/mL after drug removal in the treated and untreated cultures, respectively.

In series [2] the test system is four S. aureus strains. The series can be described thus: MPC, summary over four strains. In kind it is cell-based, Staphylococcus aureus. Here is the method:
(§1) The drug-resistant tendency suppression potential of Z33 and tiamulin was determined as described with minor modifications. In the test, for each S. aureus strain, 4 mL of overnight cultures were inoculated into 100 mL of fresh BHI broth and then incubated for 4.5 h at 37 °C with shaking (210 rpm). Cultures were centrifuged at 5000 r/min for 10 min. The supernatant was discarded and resuspended in the 4 mL of saline to achieve a bacterial density of ~3 × 10^10 CFU/mL. In total, 100 μL of each culture was spread onto MHA containing various concentrations of Z33 and tiamulin. […] Plates were incubated at 37 °C for a total of 72 h and recorded every 24 h for the appearance of colonies. MPC was defined as the lowest concentration with no growth of colonies on the agar plate. MPC was carried out in triplicate.

Series [3] concerns the target T1, CYP2E1 (Homo sapiens, UniProt P05181).
T1 construct: 40 µL of the human liver microsomal enzyme (final concentration is 0.5 g/L); tissue Research Institute for Liver Diseases Co., Ltd. (Shanghai, China); host or cells: human liver microsomes
The series can be described thus: CYP450 inhibition assay, human liver microsomes, chlorzoxazone probe. Format: in vitro ADME. The conditions noted are these: for IC50: human liver microsomes. The protocol:
The inhibition effect of Z33 and tiamulin on the human liver microsomal enzyme was determined as described in the literature with some modifications. Experiments were performed in 96-well plates with a final incubation volume of 100 μL per well. 40 µL of the human liver microsomal enzyme (final concentration is 0.5 g/L), 20 µL of probe substrate (final concentration of testosterone and chlorzoxazone is 20 µmol/L), and 20 µL of test drug were mixed in each well. After preincubation at 37 °C for 5 min, the reactions were started by the addition of 20 μL of NADPH (final concentration is 1 mmol/L). Depending on the substrate, the chlorzoxazone and testosterone groups were incubated at 37 °C for 25 min and 10 min, respectively. The reaction was terminated by adding 100 µL of acetonitrile, and then the supernatant was centrifuged to analyse by LC-MS/MS.
For orientation: Liver microsomes are vesicles of endoplasmic reticulum, rich in cytochrome P450 enzymes.

For series [4], the system named is MRSA ATCC 43300. The experiment in a line: Neutropenic mouse thigh infection model. Format: in vivo, mice. The protocol: The neutropenic mouse thigh infection model was used to determine the in vivo antibacterial activity of Z33 [23]. Briefly, female mice were rendered neutropenic (neutrophil count ≤ 100/mm^3) via intraperitoneal injection of cyclophosphamide on day 4 (150 mg/kg) and day 1 (100 mg/kg) before infection. MRSA ATCC 43300 cells were collected in the logarithmic phase and resuspended in 0.9% saline. The thigh infection model was established by injection of 100 μL of MRSA suspension (10^7 CFU/mL) into the posterior thighs of mice. After 2 h post-infection, mice were intravenously injected with tiamulin and Z33 at a dose of 20 mg/kg, and the untreated groups were administrated with an equal amount of saline. Mice were euthanized after treatment of 22 h, thigh tissue was aseptically collected, weighed, homogenized, and serially diluted in saline, respectively. CFU counts were determined by the flat colony counting method.

Series [5] deals with S. aureus ATCC 29213. The experiment in a line: MIC and MBC determination (broth microdilution). The following applies: Staphylococcus aureus. In kind it is cell-based. The protocol:
(§2) The MIC values of Z33 against MRSA ATCC 43300 and S. aureus clinical isolates were measured according to the broth microdilution guidelines provided by the Clinical and Laboratory Standards Institute (CLSI). S. aureus ATCC 29213 was used as the quality control strain, and the quality control range was referred to the CLSI. The MIC value is defined as the lowest concentration of the compounds with no visible growth of bacteria. The MIC assay was independently repeated three times.
(§3) The MBC values of antibacterial agents were measured after incubation at 37 °C for 24 h. Briefly, 100 µL of bacterial solution from the three wells behind the corresponding well of MIC was absorbed and spread on the Mueller–Hinton Agar (MHA). The MBC refers to the lowest concentration corresponding to the amount of colony-forming unit (CFU) ≤ 5 on the medium after 18~24 h of incubation at 37 °C.

Series [6] concerns MRSA ATCC 43300. The series can be described thus: MIC and MBC determination (broth microdilution). In kind it is cell-based. The conditions noted are these: Staphylococcus aureus. The protocol: as §2, §3
On the technique in general: In broth dilution the organism is exposed to a series of concentrations in liquid medium.

Series [7] deals with S. aureus clinical strain 144. The series can be described thus: MIC and MBC determination (broth microdilution). In kind it is cell-based. The following applies: Staphylococcus aureus. Here is the method:
as §2, §3

Series [8] deals with S. aureus clinical strain AD3. The series can be described thus: MIC and MBC determination (broth microdilution). In kind it is cell-based. The conditions noted are these: Staphylococcus aureus. Here is the method:
as §2, §3

The test system of series [9] is S. aureus ATCC 29213. The experiment in a line: Determination of MPC (mutant prevention concentration). In kind it is cell-based, Staphylococcus aureus. The protocol:
as §1

The subject of series [10] is MRSA ATCC 43300. Described as above. Format: cell-based, Staphylococcus aureus. The protocol:
as §1

The subject of series [11] is S. aureus clinical strain 144. The series is described as above. Format: cell-based, Staphylococcus aureus. Here is the method:
as §1

Series [12] concerns S. aureus clinical strain AD3. Described as above. Format: cell-based, Staphylococcus aureus. Here is the method: as §1

T1 sequence (P05181 whole entry): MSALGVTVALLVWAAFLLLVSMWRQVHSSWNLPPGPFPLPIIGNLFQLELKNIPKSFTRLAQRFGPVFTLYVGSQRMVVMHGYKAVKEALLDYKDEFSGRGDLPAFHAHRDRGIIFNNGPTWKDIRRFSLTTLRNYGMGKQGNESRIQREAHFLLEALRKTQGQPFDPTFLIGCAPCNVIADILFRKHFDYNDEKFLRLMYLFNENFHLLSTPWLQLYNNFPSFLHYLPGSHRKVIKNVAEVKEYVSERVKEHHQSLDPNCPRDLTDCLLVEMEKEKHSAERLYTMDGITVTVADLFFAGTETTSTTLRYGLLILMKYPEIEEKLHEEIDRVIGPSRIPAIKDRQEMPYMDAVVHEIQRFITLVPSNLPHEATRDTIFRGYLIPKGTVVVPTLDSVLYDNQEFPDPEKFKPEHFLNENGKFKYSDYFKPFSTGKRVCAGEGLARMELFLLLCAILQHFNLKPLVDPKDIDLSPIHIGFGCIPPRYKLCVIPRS

On to `C=C[C@]1(C)C[C@@H](OC(=O)CSc2ccccc2NC(=O)Cn2cc(CN3CCN(c4ccc([N+](=O)[O-])cc4)CC3)nn2)[C@]2(C)[C@H](C)CC[C@]3(CCC(=O)[C@H]32)[C@@H](C)[C@@H]1O` [Compound Z33, 22-(2-(2-(4-((4-(4-nitrophenyl)piperazin-1-yl)methyl)-1H-1,2,3-triazol-1-yl)acetamido)phenyl)thioacety-l-yl-22-deoxypleuromutilin], for which the PAE in [1] (2 × MIC, exposure for 1 h) was 2.24 h; in series [1] (2 × MIC, exposure for 2 h), 2.18 h; in series [1] (4 × MIC, exposure for 1 h), 3.89 h; in [1] (4 × MIC, exposure for 2 h), 3.93 h. Moreover, the “MPCs to four S. aureus strains” value in [2] stood at 0.5 µg/mL. Also, the “fold difference of CYP2E1 IC50 relative to tiamulin” value in series [3] (Z33 vs tiamulin) is reported as “at least 50 fold”. Also, the IC50 (in general, the point on the concentration scale where inhibition reaches its midpoint) in [3] (Figure 6, read-out: IC50 CYP2E1 (value in plot key)) is 10.2 µM; in series [3] (bound given in text, read-out: IC50 CYP2E1) it was more than 10 µM. Moreover, the “MRSA inoculum in the thigh muscle” value in [4] (20 mg/kg intravenous, after treatment for 24 h) is recorded as 7.065 ± 0.070 log10 CFU/g. In addition, the “reduction of bacterial load in the thigh muscle” value in [4] (20 mg/kg intravenous, versus untreated group) was “approximately 1.358 log10 CFU/g”. Besides, the “reduction in CFUs compared with the control group” value in [4] (20 mg/kg, p < 0.0001) came to 1.358 log10. In addition, the MIC (commonly the smallest concentration in the dilution series that meets the test's criterion for growth inhibition) in series [5] (ATCC29213, first value of cell) came out at 0.125 µg/mL (≈ 0.154 µM); in [6] (first value of MIC/MBC cell), 0.125 µg/mL (≈ 0.154 µM); in series [7] (first value of cell), 0.25 µg/mL (≈ 0.307 µM); in series [8] (first value of cell), 0.25 µg/mL (≈ 0.307 µM). The MBC – broadly, the smallest concentration meeting the test's criterion for killing – was determined as 0.125 µg/mL (≈ 0.154 µM) in [5] (ATCC29213, second value of cell); 0.25 µg/mL (≈ 0.307 µM) in series [6] (second value of MIC/MBC cell); 0.25 µg/mL (≈ 0.307 µM) in [7] (second value of cell); 0.25 µg/mL (≈ 0.307 µM) in series [8] (second value of cell). Moreover, the MPC in [9], in series [10], in series [11] and in series [12] was 0.5 µg/mL in each case.
